In patent US10076519B2 (CYTOKINETICS, INC., priority 2010, dated 2018):

System: rabbit skeletal myofibrils (fast skeletal myofibrils)
Assay: Activation of fast skeletal myofibrils (PUMA assay, PK/LDH-coupled ATPase at pCa25)
Assay type: biochemical
Details: AC1.4 determined according to the procedure of Example 39; reported as class symbols
In short: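 ATPase activity of Triton-washed rabbit skeletal myofibrils, roughly 90% fast fibres, tracked by NADH loss at 340 nm through a PK/LDH-coupled ADP-regenerating system. Calcium set to 25% of maximal activity (pCa25), in PIPES 12 mM pH 6.8 with 2 mM MgCl2 and 1 mM DTT; AC1.4 reported.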

| Compound | Mean AC1.4 |
| --- | --- |
| CC(C)(CNc1ccc(-c2cccc(C(=O)N3CCCCC3)c2)nn1)c1ccc(F)cc1 [3-(6-{[2-(4-fluorophenyl)-2-methylpropyl]amino}pyridazin-3-yl)phenyl piperidyl ketone] | B (B=1-10 uM) |
| CC(C)(CNc1ccc(-c2cccnc2O)nn1)c1ccc(F)cc1 [3-(6-{[2-(4-fluorophenyl)-2-methylpropyl]amino}pyridazin-3-yl)pyridin-2-ol] | B (B=1-10 uM) |
| CC(C)(CNc1ccc(-c2cccc(C(N)=O)c2)nn1)c1ccc(F)cn1 [3-(6-{[2-(5-fluoro(2-pyridyl))-2-methylpropyl]amino}pyridazin-3-yl)benzamide] | C (C=10-20 uM) |
| NC(=O)c1cccc(-c2ccc(NCC3(C(N)=O)CCC3)nn2)c1 [3-(6-{[(carbamoylcyclo-butyl)methyl]amino}pyridazin-3-yl)benzamide] | D (D=>20 uM) |
| CC1(C)CN(c2ccc(-c3cccc(C(N)=O)c3)nn2)c2ccccc21 [3-[6-(3,3-dimethylindolinyl)pyridazin-3-yl]benzamide] | D (D=>20 uM) |
| NC(=O)c1cccc(-c2ccc(NC3Cc4ccccc4C3)nn2)c1 [3-[6-(indan-2-ylamino)pyridazin-3-yl]benzamide] | D (D=>20 uM) |
| CC(=O)N1CC(CNc2ccc(-c3cccc(C(N)=O)c3)nn2)(c2ncccc2F)C1 [3-[6-({[1-acetyl-3-(3-fluoro(2-pyridyl))azetidin-3-yl]methyl}amino)pyridazin-3-yl]benzamide] | D (D=>20 uM) |
| CS(=O)(=O)N1CC(CNc2ccc(-c3cccc(C(N)=O)c3)nn2)(c2ncccc2F)C1 [3-[6-({[3-(3-fluoro(2-pyridyl))-1-(methylsulfonyl)azetidin-3-yl]methyl}amino)pyridazin-3-yl]benzamide] | D (D=>20 uM) |
| NC(=O)c1cccc(-c2ccc(NCC3(c4ncccc4F)CNC3)nn2)c1 [3-[6-({[3-(3-fluoro-2-pyridyl)azetidin-3-yl]methyl}amino)pyridazin-3-yl]benzamide] | D (D=>20 uM) |
| NC(=O)c1cccc(-c2ccc(NCC3(c4ccc(F)cc4)COC3)nn2)c1 [3-[6-({[3-(4-fluorophenyl)oxetan-3-yl]methyl}amino)pyridazin-3-yl]benzamide] | D (D=>20 uM) |
| NC(=O)c1cccc(-c2ccc(NCC3(c4ccccc4Cl)CC3)nn2)c1 [3-[6-({[(2-chlorophenyl)cyclopropyl]meth-yl}amino)pyridazin-3-yl]benzamide] | A (A=<1 uM) |

Same assay, conditions: median AC1.4 class, procedure of Example 39

| Compound | Mean AC1.4 |
| --- | --- |
| N#Cc1cccc(-c2ccc(NCC3(c4ccccn4)CCC3)nn2)c1 [3-(6-{[(2-pyridylcyclobutyl)methyl]ami-no}pyridazin-3-yl)benzenecarbonitrile] | B (B=1-10 uM) |
| CN(CC1(c2ccccn2)CCC1)c1ccc(-c2cccc(C(N)=O)c2)nn1 [3-(6-{methyl[(2-pyridylcyclobutyl)methyl]ami-no}pyridazin-3-yl)benzamide] | D (D=>20 uM) |
| NC(=O)c1cccc(-c2ccc(NC(=O)c3ccccc3)nn2)c1 [3-[6-(phenylcarbonylamino)pyridazin-3-yl]benzamide] | D (D=>20 uM) |
| CC(C)(Nc1ccc(-c2cc(C(N)=O)ccc2F)nn1)c1cccc(OC(F)F)n1 [3-[6-({1-[6-(difluoromethoxy)(2-pyridyl)]-isopropyl}amino)pyridazin-3-yl]-4-fluorobenzamide] | A (A=<1 uM) |
| CC(C)(Nc1ccc(-c2cccc(C(N)=O)c2)nn1)c1cccc(OC(F)F)n1 [3-[6-({1-[6-(difluoromethoxy)(2-pyridyl)]-isopropyl}amino)pyridazin-3-yl]benzamide] | B (B=1-10 uM) |
| NC(=O)c1ccc(O)c(-c2ccc(NC[C@]3(c4ncccc4F)C[C@H](F)C3)nn2)c1 [3-[6-({[3-fluoro-1-(3-fluoro(2-pyridyl))cyclobutyl]methyl}ami-no)pyridazin-3-yl]-4-hydroxybenzamide] | B (B=1-10 uM) |
| NC(=O)c1cccc(-c2ccc(NC[C@]3(c4ncccc4F)C[C@H](F)C3)nn2)c1 [3-[6-({[3-fluoro-1-(3-fluoro(2-pyridyl))cyclobutyl]methyl}ami-no)pyridazin-3-yl]benzamide] | A (A=<1 uM) |
| N#Cc1cccc(-c2ccc(NC[C@]3(c4ncccc4F)C[C@H](F)C3)nn2)c1 [3-[6-({[3-fluoro-1-(3-fluoro(2-pyridyl))cyclobutyl]methyl}ami-no)pyridazin-3-yl]benzenecarbonitrile] | B (B=1-10 uM) |
| NS(=O)(=O)c1cccc(-c2ccc(NC[C@]3(c4ncccc4F)C[C@H](F)C3)nn2)c1 [3-[6-({[3-fluoro-1-(3-fluoro(2-pyridyl))cyclobutyl]methyl}ami-no)pyridazin-3-yl]benzenesulfonamide] | B (B=1-10 uM) |
| O=C(O)c1cccc(-c2ccc(NC[C@]3(c4ncccc4F)C[C@H](F)C3)nn2)c1 [3-[6-({[3-fluoro-1-(3-fluoro(2-pyridyl))cyclobutyl]methyl}ami-no)pyridazin-3-yl]benzoic acid] | A (A=<1 uM) |

Same assay, conditions: median AC1.4 reported as class; procedure of Example 39

| Compound | Mean AC1.4 |
| --- | --- |
| NC(=O)c1cccc(-c2ccc(NC[C@]3(c4ncccc4F)C[C@H](F)C3)nn2)c1O [3-[6-({[3-fluoro-1-(3-fluoro(2-pyridyl))cyclobutyl]methyl}ami-no)pyridazin-3-yl]-2-hydroxybenzamide] | A (A=<1 uM) |
| N#Cc1cccc(-c2ccc(NC[C@]3(c4ncccc4F)C[C@H](F)C3)nn2)c1O [3-[6-({[3-fluoro-1-(3-fluoro(2-pyridyl))cyclobutyl]methyl}ami-no)pyridazin-3-yl]-2-hydroxybenzenecarbonitrile] | B (B=1-10 uM) |
| O=C(O)c1cccc(-c2ccc(NC[C@]3(c4ncccc4F)C[C@H](F)C3)nn2)c1O [3-[6-({[3-fluoro-1-(3-fluoro(2-pyridyl))cyclobutyl]methyl}ami-no)pyridazin-3-yl]-2-hydroxybenzoic acid] | C (C=10-20 uM) |
| COc1c(C(N)=O)cccc1-c1ccc(NC[C@]2(c3ncccc3F)C[C@H](F)C2)nn1 [3-[6-({[3-fluoro-1-(3-fluoro(2-pyridyl))cyclobutyl]methyl}ami-no)pyridazin-3-yl]-2-methoxybenzamide] | D (D=>20 uM) |
| COc1c(C#N)cccc1-c1ccc(NC[C@]2(c3ncccc3F)C[C@H](F)C2)nn1 [3-[6-({[3-fluoro-1-(3-fluoro(2-pyridyl))cyclobutyl]methyl}ami-no)pyridazin-3-yl]-2-methoxybenzenecarbonitrile] | C (C=10-20 uM) |
| NC(=O)c1cc(-c2ccc(NC[C@]3(c4ncccc4F)C[C@H](F)C3)nn2)cc(C(F)(F)F)c1 [3-[6-({[3-fluoro-1-(3-fluoro(2-pyridyl))cyclobutyl]methyl}ami-no)pyridazin-3-yl]-5-(trifluoromethyl)benzamide] | B (B=1-10 uM) |
| NC(=O)c1cc(O)cc(-c2ccc(NC[C@]3(c4ncccc4F)C[C@H](F)C3)nn2)c1 [3-[6-({[3-fluoro-1-(3-fluoro(2-pyridyl))cyclobutyl]methyl}ami-no)pyridazin-3-yl]-5-hydroxybenzamide] | A (A=<1 uM) |
| Cc1cc(C(N)=O)cc(-c2ccc(NC[C@]3(c4ncccc4F)C[C@H](F)C3)nn2)c1 [3-[6-({[3-fluoro-1-(3-fluoro(2-pyridyl))cyclobutyl]methyl}ami-no)pyridazin-3-yl]-5-methylbenzamide] | B (B=1-10 uM) |
| Cc1cc(NCC2(c3ncccc3F)CCC2)nnc1-c1cccc(C(N)=O)c1 [3-[6-({[(3-fluoro(2-pyridyl))cyclobutyl]methyl}ami-no)-4-methylpyridazin-3-yl]benzamide] | C (C=10-20 uM) |
| Cc1cc(NCC2(c3ncccc3F)CCC2)nnc1-c1cccc(C#N)c1 [3-[6-({[(3-fluoro(2-pyridyl))cyclobutyl]methyl}ami-no)-4-methylpyridazin-3-yl]benzenecarbonitrile] | C (C=10-20 uM) |
| Cc1cc(C(N)=O)c(O)c(-c2ccc(NCC3(c4ncccc4F)CCC3)nn2)c1 [3-[6-({[(3-fluoro(2-pyridyl))cyclobutyl]methyl}ami-no)pyridazin-3-yl]-2-hydroxy-5-methylbenzamide] | B (B=1-10 uM) |
| Cc1cc(C#N)c(O)c(-c2ccc(NCC3(c4ncccc4F)CCC3)nn2)c1 [3-[6-({[(3-fluoro(2-pyridyl))cyclobutyl]methyl}ami-no)pyridazin-3-yl]-2-hydroxy-5-methylbenzenecarbonitrile] | B (B=1-10 uM) |
| NC(=O)c1cccc(-c2ccc(NCC3(c4ncccc4F)CCC3)nn2)c1O [3-[6-({[(3-fluoro(2-pyridyl))cyclobutyl]methyl}ami-no)pyridazin-3-yl]-2-hydroxybenzamide] | A (A=<1 uM) |
| CC1(C)C(=O)NN=C1c1ccc(NCC2(c3ncccc3F)CCC2)nn1 [3-[6-({[(3-fluoro(2-pyridyl))cyclobutyl]methyl}ami-no)pyridazin-3-yl]-4,4-dimethyl-2-pyrazolin-5-one] | D (D=>20 uM) |
| NC(=O)c1ccc(O)c(-c2ccc(NCC3(c4ncccc4F)CCC3)nn2)c1 [3-[6-({[(3-fluoro(2-pyridyl))cyclobutyl]methyl}ami-no)pyridazin-3-yl]-4-hydroxybenzamide] | B (B=1-10 uM) |
| O=C(O)c1ccc(O)c(-c2ccc(NCC3(c4ncccc4F)CCC3)nn2)c1 [3-[6-({[(3-fluoro(2-pyridyl))cyclobutyl]methyl}ami-no)pyridazin-3-yl]-4-hydroxybenzoic acid] | C (C=10-20 uM) |
| Cc1c(-c2ccc(NCC3(c4ncccc4F)CCC3)nn2)[nH][nH]c1=O [3-[6-({[(3-fluoro(2-pyridyl))cyclobutyl]methyl}ami-no)pyridazin-3-yl]-4-methyl-3-pyrazolin-5-one] | D (D=>20 uM) |
| Cc1cc(-c2cccc(C(N)=O)c2)nnc1NCC1(c2ncccc2F)CCC1 [3-[6-({[(3-fluoro(2-pyridyl))cyclobutyl]methyl}amino)-5-methylpyridazin-3-yl]benzamide] | D (D=>20 uM) |
